Literature values as cited in patent US7329656B2, “Arylthiobenzylpiperidine derivatives” (H. Lundbeck A/S, priority 2004, dated 2008).
Where two headings read alike, the source gives them in different places.

How the values were obtained:
rat [1] = conditions: rat social interaction
guinea pig = guinea pig maternal-separation vocalization
rat [2] = conditions: rat forced-swim

COCC1=C(C(=O)OC)[C@H](c2ccc(F)c(F)c2)N(C(=O)NCCCN2CCC(c3cccc(NC(C)=O)c3)CC2)C(=O)N1 [SNAP-7941]
behavioral profile in model of depression and/or anxiety (rat [1]): profile similar to clinically used anti-depressants and anxiolytics
behavioral profile in model of depression and/or anxiety (guinea pig): profile similar to clinically used anti-depressants and anxiolytics
behavioral profile in model of depression and/or anxiety (rat [2]): profile similar to clinically used anti-depressants and anxiolytics
